Experimental data taken from US20260015358A1, “BICYCLIC DERIVATIVES, COMPOSITIONS AND USES THEREOF” (Danatlas Pharmaceuticals Co., Ltd., priority 2023, published 2026).

Key:
[1] = molecular target: T1, WRN [UniPro: Q14191 (WRN_HUMAN), N500-C946] (Homo sapiens (Human), UniProt Q14191); experiment: WRN unwinding assay (FORKF DNA, fluorescence); assay type: biochemical; settings: Table 14
[2] = molecular target: T1, WRN [UniPro: Q14191 (WRN_HUMAN), N500-C946]; experiment: WRN ATPase assay (ADP-Glo); assay type: biochemical; settings: WRN enzymatic activity assay

T1 sequence (Q14191 500-946): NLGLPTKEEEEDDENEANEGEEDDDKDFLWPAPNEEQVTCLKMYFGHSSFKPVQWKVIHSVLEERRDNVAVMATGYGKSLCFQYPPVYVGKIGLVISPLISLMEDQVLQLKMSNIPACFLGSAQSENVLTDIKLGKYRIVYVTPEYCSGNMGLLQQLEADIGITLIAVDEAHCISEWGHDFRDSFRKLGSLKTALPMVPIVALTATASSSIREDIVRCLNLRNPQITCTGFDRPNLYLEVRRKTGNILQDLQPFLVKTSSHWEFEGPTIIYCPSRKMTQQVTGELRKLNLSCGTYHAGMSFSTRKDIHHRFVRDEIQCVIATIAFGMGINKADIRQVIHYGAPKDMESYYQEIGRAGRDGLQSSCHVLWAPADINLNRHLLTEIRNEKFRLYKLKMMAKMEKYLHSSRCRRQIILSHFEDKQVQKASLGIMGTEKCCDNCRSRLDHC

| SMILES | IC50 [1] [nM] | IC50 [2] [nM] |
| --- | --- | --- |
| CCc1c(N2CCN(C(=O)C(=O)Nc3ccncn3)CC2)c(=O)n2nc(C3=CCOCC3)nc2n1CC(=O)Nc1ccc(C(F)(F)F)cc1F [Example 340, 2-(4-(2-(3,6-Dihydro-2H-pyran-4-yl)-5-ethyl-4-(2-((2-fluoro-4-(trifluoromethyl)phenyl)amino)-2-oxoethyl)-7-oxo-4,7-dihydro-[1,2,4]triazolo[1,5-a]pyrimidin-6-yl)piperazin-1-yl)-2-oxo-N-(pyrimidin-4-yl)acetamide] | 100 to 1000 | 100 to 1000 |
| CCc1c(N2CCN(C(=O)CNC(=O)c3ccccc3)CC2)c(=O)n2nc(C3CC3)nc2n1CC(=O)Nc1ccc(C(F)(F)F)cc1Cl [Example 238, N-(2-(4-(4-(2-((2-Chloro-4-(trifluoromethyl)phenyl)amino)-2-oxoethyl)-2-cyclopropyl-5-ethyl-7-oxo-4,7-dihydro-[1,2,4]triazolo[1,5-a]pyrimidin-6-yl)piperazin-1-yl)-2-oxoethyl)benzamide] | 100 to 1000 | 100 to 1000 |
| CCc1c(N2CCN(C(=O)C(C)NC(=O)c3ccccc3)CC2)c(=O)n2nc(C3=CCOCC3)nc2n1CC(=O)Nc1ccc(C(F)(F)F)cc1Cl (centres unmarked) [Example 136, N-(1-(4-(4-(2-((2-Chloro-4-(trifluoromethyl)phenyl)amino)-2-oxoethyl)-2-(3,6-dihydro-2H-pyran-4-yl)-5-ethyl-7-oxo-4,7-dihydro-[1,2,4]triazolo[1,5-a]pyrimidin-6-yl)piperazin-1-yl)-1-oxopropan-2-yl)benzamide] | 100 to 1000 | < 100 |
| CCc1c(N2CCN(C(=O)CNC(=O)c3ccc(F)cc3)CC2)c(=O)n2nc(C3=CCOCC3)nc2n1CC(=O)Nc1ccc(C(F)(F)F)cc1Cl [Example 98, N-(2-(4-(4-(2-((2-Chloro-4-(trifluoromethyl)phenyl)amino)-2-oxoethyl)-2-(3,6-dihydro-2H-pyran-4-yl)-5-ethyl-7-oxo-4,7-dihydro-[1,2,4]triazolo[1,5-a]pyrimidin-6-yl)piperazin-1-yl)-2-oxoethyl)-4-fluorobenzamide] | < 100 | < 100 |
| CCc1c(N2CCN(C(=O)CNC(=O)c3ncnc(C)c3O)CC2)c(=O)n2nc(C3=CCOCC3)nc2n1CC(=O)Nc1ccc(C(F)(F)F)cc1Cl [Example 210, N-(2-(4-(4-(2-((2-Chloro-4-(trifluoromethyl)phenyl)amino)-2-oxoethyl)-2-(3,6-dihydro-2H-pyran-4-yl)-5-ethyl-7-oxo-4,7-dihydro-[1,2,4]triazolo[1,5-a]pyrimidin-6-yl)piperazin-1-yl)-2-oxoethyl)-5-hydroxy-6-methylpyrimidine-4-carboxamide] | < 100 | < 100 |
| CCc1c(N2CCN(C(=O)CNC(=O)c3ccc(F)c(NC)c3)CC2)c(=O)n2nc(C3=CCOCC3)nc2n1CC(=O)Nc1ccc(C(F)(F)F)cc1Cl [Example 285, N-(2-(4-(4-(2-((2-Chloro-4-(trifluoromethyl)phenyl)amino)-2-oxoethyl)-2-(3,6-dihydro-2H-pyran-4-yl)-5-ethyl-7-oxo-4,7-dihydro-[1,2,4]triazolo[1,5-a]pyrimidin-6-yl)piperazin-1-yl)-2-oxoethyl)-4-fluoro-3-(methylamino)benzamide] | < 100 | < 100 |
| CCc1c(N2CCN(C(=O)C(=O)Nc3nccs3)CC2)c(=O)n2nc(N3CCN4C(=O)OC[C@H]4C3)nc2n1CC(=O)Nc1ccc(C(F)(F)F)cc1F [Example 264, (R)-2-(4-(5-Ethyl-4-(2-((2-fluoro-4-(trifluoromethyl)phenyl)amino)-2-oxoethyl)-7-oxo-2-(3-oxotetrahydro-3H-oxazolo[3,4-a]pyrazin-7 (1H)-yl)-4,7-dihydro-[1,2,4]triazolo[1,5-a]pyrimidin-6-yl)piperazin-1-yl)-2-oxo-N-(thiazol-2-yl)acetamide] | < 100 | < 100 |
| CCc1c(N2CCN(C(=O)c3cnc4scnc4c3O)CC2)c(=O)n2nc(C3=CCOCC3)nc2n1CC(=O)Nc1ccc(C(F)(F)F)cc1Cl [Example 49, N-(2-Chloro-4-(trifluoromethyl)phenyl)-2-(2-(3,6-dihydro-2H-pyran-4-yl)-5-ethyl-6-(4-(7-hydroxythiazolo[5,4-b]pyridine-6-carbonyl)piperazin-1-yl)-7-oxo-[1,2,4]triazolo[1,5-a]pyrimidin-4(7H)-yl)acetamide] | < 100 | < 100 |
| CCc1c(N2CCN(C(=O)CNC(=O)c3cccc(O)c3F)CC2)c(=O)n2nc(N3CCOCC3)nc2n1CC(=O)Nc1ccc(C(F)(F)F)cc1F [Example 252, N-(2-(4-(5-Ethyl-4-(2-((2-fluoro-4-(trifluoromethyl)phenyl)amino)-2-oxoethyl)-2-morpholino-7-oxo-4,7-dihydro-[1,2,4]triazolo[1,5-a]pyrimidin-6-yl)piperazin-1-yl)-2-oxoethyl)-2-fluoro-3-hydroxybenzamide] | < 100 | < 100 |
| CCc1c(N2CCN(C(=O)C(=O)Nc3cc(C)on3)CC2)c(=O)n2nc(N3CCOCC3)nc2n1CC(=O)Nc1ccc(C(F)(F)F)cc1Cl [Example 352, 2-(4-(4-(2-((2-Chloro-4-(trifluoromethyl)phenyl)amino)-2-oxoethyl)-5-ethyl-2-morpholino-7-oxo-4,7-dihydro-[1,2,4]triazolo[1,5-a]pyrimidin-6-yl)piperazin-1-yl)-N-(5-methylisoxazol-3-yl)-2-oxoacetamide] | 100 to 1000 | 100 to 1000 |
| CCc1c(N2CCN(C(=O)c3cn(C)c(=O)[nH]c3=O)CC2)c(=O)n2nc(C3=CCOCC3)nc2n1CC(=O)Nc1ccc(C(F)(F)F)cc1Cl [Example 59, N-(2-Chloro-4-(trifluoromethyl)phenyl)-2-(2-(3,6-dihydro-2H-pyran-4-yl)-5-ethyl-6-(4-(1-methyl-2,4-dioxo-1,2,3,4-tetrahydropyrimidine-5-carbonyl)piperazin-1-y1)-7-oxo-[1,2,4]triazolo[1,5-a]pyrimidin-4(7H)-yl)acetamide] | < 100 | 100 to 1000 |
| CCc1c(N2CCN(C(=O)C(=O)Nc3ccccn3)CC2)c(=O)n2nc(C3=CCOCC3)nc2n1CC(=O)Nc1ccc(C(F)(F)F)cc1F [Example 229, 2-(4-(2-(3,6-Dihydro-2H-pyran-4-yl)-5-ethyl-4-(2-((2-fluoro-4-(trifluoromethyl)phenyl)amino)-2-oxoethyl)-7-oxo-4,7-dihydro-[1,2,4]triazolo[1,5-a]pyrimidin-6-yl)piperazin-1-yl)-2-oxo-N-(pyridin-2-yl)acetamide] | < 100 | 100 to 1000 |
| CCc1c(N2CCN(C(=O)CNC(=O)c3ccccc3O)CC2)c(=O)n2nc(C3=CCOCC3)nc2n1CC(=O)Nc1ccc(C(F)(F)F)cc1Cl [Example 269, N-(2-(4-(4-(2-((2-Chloro-4-(trifluoromethyl)phenyl)amino)-2-oxoethyl)-2-(3,6-dihydro-2H-pyran-4-yl)-5-ethyl-7-oxo-4,7-dihydro-[1,2,4]triazolo[1,5-a]pyrimidin-6-yl)piperazin-1-yl)-2-oxoethyl)-2-hydroxybenzamide] | < 100 | < 100 |
| CCc1c(N2CCN(C(=O)CNS(=O)(=O)c3ccccc3)CC2)c(=O)n2nc(C3=CCOCC3)nc2n1CC(=O)Nc1ccc(C(F)(F)F)cc1Cl [Example 171, N-(2-Chloro-4-(trifluoromethyl)phenyl)-2-(2-(3,6-dihydro-2H-pyran-4-yl)-5-ethyl-7-oxo-6-(4-(2-(phenylsulfonamido)acetyl)piperazin-1-yl)-[1,2,4]triazolo[1,5-a]pyrimidin-4(7H)-yl)acetamide] | 100 to 1000 | 100 to 1000 |
| CCc1c(N2CCN(C(=O)C3CCC(=O)N3)CC2)c(=O)n2nc(C3=CCOCC3)nc2n1CC(=O)Nc1ccc(C(F)(F)F)cc1Cl (centres unmarked) [Example 66, N-(2-Chloro-4-(trifluoromethyl)phenyl)-2-(2-(3,6-dihydro-2H-pyran-4-yl)-5-ethyl-7-oxo-6-(4-(5-oxopyrrolidine-2-carbonyl)piperazin-1-yl)-[1,2,4]triazolo[1,5-a]pyrimidin-4(7H)-yl)acetamide] | > 1000 | > 1000 |
| CCc1c(N2CCN(C(=O)c3[nH]cnc3C(F)(F)F)CC2)c(=O)n2nc(C3=CCOCC3)nc2n1CC(=O)Nc1ccc(C(F)(F)F)cc1Cl [Example 31, N-(2-Chloro-4-(trifluoromethyl)phenyl)-2-(2-(3,6-dihydro-2H-pyran-4-yl)-5-ethyl-7-oxo-6-(4-(4-(trifluoromethyl)-1H-imidazole-5-carbonyl)piperazin-1-yl)-[1,2,4]triazolo[1,5-a]pyrimidin-4(7H)-yl)acetamide] | < 100 | 100 to 1000 |
| CCc1c(N2CCN(C(=O)CNC(=O)Nc3ccccc3Cl)CC2)c(=O)n2nc(C3=CCOCC3)nc2n1CC(=O)Nc1ccc(C(F)(F)F)cc1Cl [Example 181, N-(2-Chloro-4-(trifluoromethyl)phenyl)-2-(6-(4-(((2-chlorophenyl)carbamoyl)glycyl)piperazin-1-yl)-2-(3,6-dihydro-2H-pyran-4-yl)-5-ethyl-7-oxo-[1,2,4]triazolo[1,5-a]pyrimidin-4(7H)-yl)acetamide] | < 100 | < 100 |
| CCc1c(N2CCN(C(=O)CNC(=O)c3ccc(OC)cc3F)CC2)c(=O)n2nc(C3=CCOCC3)nc2n1CC(=O)Nc1ccc(C(F)(F)F)cc1Cl [Example 379, N-(2-(4-(4-(2-((2-Chloro-4-(trifluoromethyl)phenyl)amino)-2-oxoethyl)-2-(3,6-dihydro-2H-pyran-4-yl)-5-ethyl-7-oxo-4,7-dihydro-[1,2,4]triazolo[1,5-a]pyrimidin-6-yl)piperazin-1-yl)-2-oxoethyl)-2-fluoro-4-methoxybenzamide] | < 100 | < 100 |
| CCc1c(N2CCN(C(=O)CNC(=O)c3cscn3)CC2)c(=O)n2nc(C3=CCOCC3)nc2n1CC(=O)Nc1ccc(C(F)(F)F)cc1Cl [Example 129, N-(2-(4-(4-(2-((2-Chloro-4-(trifluoromethyl)phenyl)amino)-2-oxoethyl)-2-(3,6-dihydro-2H-pyran-4-yl)-5-ethyl-7-oxo-4,7-dihydro-[1,2,4]triazolo[1,5-a]pyrimidin-6-yl)piperazin-1-yl)-2-oxoethyl)thiazole-4-carboxamide] | < 100 | < 100 |
